# Where a name gives a salt, the structure may show the parent alone.
# Columns and labels:
# [1] = target: T1, recombinant human trypsin (Homo sapiens, UniProt P07477); assay: Small molecule binding to trypsin-immobilized surface, PWV shift
# T1 construct: purchased Polymum Lot#H149L091.1
# Description: (§1) Trypsin was tested to determine what other proteins could be successfully immobilized on high-density polymer surfaces. Like above, high-density polymer surfaces were activated by adding 0.34 M EDC/10 mM NHS in water for 10 min, followed by removing the solution. 50 μg/ml trypsin in non-amine containing buffer was added to the wells, and was incubated for up to around 700 min, followed by a wash first with acetic buffer, then PBS. The trypsin was recombinant human protein from Polymum Lot#H149L091.1. The results of trypsin binding over time, as a function of delta PWV, are shown in FIG. 14, as well as an NHS control. 90% of the protein was immobilized within less than 2 hr. Benzamidine was then added for binding to the immobilized trypsin by adding benzamidine at a final concentration of 67 μM in PBS, pH 7.4. Benzamidine has a molecular weight of 120.15, and an expected delta PWV or PWV shift of 36 pm.
# (§2) Antipain was then added for binding to the low COOH density surfaces. 49.2, 12.3, 3.1, and 1 μM antipain dihydrochloride in PBS was prepared from a microbial source and was added to the 3.8 nm delta PWV shift from trypsin immobilization. 49.2 μM antipain was also added to no trypsin control wells (N=4). […] The theoretical shift of antipain of 1:1 binding on 3.8 nm delta PWV shift trypsin surface is […]. The control, 49.2 μM antipain in a well with no trypsin immobilization, had […] bulk or NSB PWV shift.
# (§3) Leupeptin was also added for binding to the low COOH density surfaces. 88, 22, 5.5, and 0 μM leupeptin dihydrochloride solutions in PBS were prepared and were added to the 3.8 nm delta PWV shift trypsin immobilization surfaces. 88 μM leupeptin was also added to no trypsin control wells (N=2). […] The theoretical shift of leupeptin of 1:1 binding on 3.8 nm delta PWV trypsin is […]. The control 88 μM leupeptin with no trypsin immobilization had 12 nm bulk or NSB shift.
# streptavidin = streptavidin (Streptomyces avidinii, UniProt P22629); assay: Biotin binding to immobilized streptavidin on PAA surfaces
# Description: (§4) In order to immobilize protein to the novel surfaces, the high-density polymer surfaces of Examples 2 and 3 were activated by adding 0.34 M EDC/10 mM NHS in water for 10 min, followed by removing the solution. In an initial test of protein immobilization capability and protein activity following immobilization, biotin binding to immobilized streptavidin was used—20 μL of either 200 μg/ml avidin or streptavidin in a non-amine containing buffer (10 mM acetate buffer, pH 5.0) were added to the surface and incubated for 3 hr, followed by a wash first with the non-amine containing buffer, then PBS. Biotin was then added for binding to the immobilized avidin or streptavidin by using a 20 μL of a biotin solution in PBS to result in a final Biotin concentration of approximately 58 μM (N=4).
# (§5) 20 μL of either 0, 50, or 200 μg/ml avidin or streptavidin in a non-amine containing buffer were added to the wells after they were pre-activated for 10 min with EDC/NHS, and incubated for 3 hr. This was then followed by a wash first with the non-amine containing buffer. Biotin was then added for binding to the immobilized avidin or streptavidin by adding 20 μL of a biotin solution in PBS to result in a final Biotin concentration of approximately 58 μM (N=4).
# avidin = avidin (Gallus gallus, UniProt P02701); assay: Biotin binding to immobilized avidin on PAA surfaces
# Description: as §4, §5
# [2] = Bulk or NSB PWV shift in no trypsin control wells; conditions: 88 μM leupeptin, no trypsin immobilization
# Description: as §2, §3
# [3] = Streptavidin/avidin immobilization on high-density polymer (PAA) surfaces, SWS biosensor PWV shift; format: binding
# Description: as §4
# The initial test was followed up by reacting different concentrations of avidin or streptavidin with the different high-density polymer surfaces.
# as §5
# [4] = Trypsin immobilization on high-density polymer surfaces, delta PWV; format: binding; conditions: for course of immobilization: 10 mM acetate buffer pH 5.0, 3 hr
# Description: as §1
# Trypsin binding was also measured on both high and low COOH density surfaces. 100 μg of human recombinant trypsin in 10 mM acetate buffer pH 5.0 was immobilized on either a high or low COOH density surface for 3 hr.
# [5] = PAA coated under theta condition, biotin approximately 58 μM
# [6] = low COOH density surfaces (versus high)
# [7] = PAA 100K, high COOH density surface, coated with 1/6 dilution NHS/EDC (theta condition) compared to the other dilutions
# [8] = PAA 100K, low COOH density surface, coated with 1/6 dilution NHS/EDC (theta condition) compared to the other dilutions
# [9] = PAA 250K, high COOH density surface, coated with 1/6 and 1/8 dilution NHS/EDC (theta condition) compared to the other dilutions
# [10] = PAA 250K, low COOH density surface, coated with 1/6 and 1/8 dilution NHS/EDC (theta condition) compared to the other dilutions
# Sequence of streptavidin (P22629 25-183, species assumed): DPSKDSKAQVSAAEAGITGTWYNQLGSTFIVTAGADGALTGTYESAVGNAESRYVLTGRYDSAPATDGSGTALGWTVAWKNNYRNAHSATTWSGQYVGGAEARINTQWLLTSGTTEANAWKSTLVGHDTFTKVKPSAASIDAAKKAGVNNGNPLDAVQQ
# Sequence of avidin (P02701 25-152, species assumed): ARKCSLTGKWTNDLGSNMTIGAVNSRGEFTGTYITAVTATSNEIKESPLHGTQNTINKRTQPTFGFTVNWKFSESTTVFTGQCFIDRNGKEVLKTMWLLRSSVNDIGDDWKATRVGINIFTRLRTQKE
molecule,measurement,setting,value
N=C(N)c1ccccc1 [Benzamidine],expected delta PWV or PWV shift,"[1]; benzamidine 67 μM in PBS, pH 7.4",36 pm
O=C(O)CCCC[C@@H]1SC[C@@H]2NC(=O)N[C@@H]21 [Biotin],biotin binding,streptavidin; [5],higher biotin binding
same,activity of streptavidin for biotin interaction,streptavidin; [6],more activity
same,biotin binding,avidin; [5],higher biotin binding
same,activity of avidin for biotin interaction,avidin; [6],more activity
"CC(=O)N[C@@H](CC(C)C)C(=O)N[C@@H](CC(C)C)C(=O)N[C@H](C=O)CCCNC(=N)N [leupeptin, leupeptin dihydrochloride]",binding to immobilized trypsin (titration),[1]; 3.8 nm delta PWV trypsin on low COOH density surface,Titration of leupeptin was observed
same,binding to immobilized trypsin,[1]; 7.2 nm delta PWV trypsin on high COOH density surface,No positive result was observed
same,theoretical shift of 1:1 binding,[1]; on 3.8 nm delta PWV shift trypsin surface,66 nm
same,bulk or NSB shift,[2],12 nm
avidin,protein immobilization (PWV),[3]; [7],More avidin was immobilized
same,protein immobilization (PWV),[3]; [8],More avidin was immobilized
same,protein immobilization (PWV),[3]; [9],More avidin was immobilized
same,protein immobilization (PWV),[3]; [10],More avidin was immobilized
streptavidin,protein immobilization (PWV),[3]; [7],More streptavidin was immobilized
same,protein immobilization (PWV),[3]; [8],More streptavidin was immobilized
same,protein immobilization (PWV),[3]; [9],More streptavidin was immobilized
same,protein immobilization (PWV),[3]; [10],More streptavidin was immobilized
trypsin,time within which 90% of the protein was immobilized,[4]; 50 μg/ml trypsin in non-amine containing buffer,less than 2 hr
same,delta PWV of trypsin immobilization,[4]; high COOH density surface,7.2 nm
same,course of immobilization,[4]; high COOH density surface,immobilized rapidly
same,delta PWV of trypsin immobilization,[4]; low COOH density surface,3.8 nm
same,course of immobilization,[4]; low COOH density surface,slow but rising constantly
